Data on one compound can be found in PubChem BioAssay AID687027 (Broad Institute, 2013).

The term AC50 denotes the concentration at which the activity in the assay is half-maximal.

In the experiment the test system is RMG-I TPO-Luc reporter, SteadyGlo luminescence, 24 h. The experiment can be described thus: PAX8 transcriptional activity inhibition in RMG-I – RMG-I cells, luciferase, cherry-pick, dose response (AID 687027).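 Further: potency for lowering reporter light which is read as Pax8 inhibition.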

Regarding `COC(C(=O)C(O)C(C)O)C1Cc2cc3cc(OC4CC(OC5CC(O)C(O)C(C)O5)C(O)C(C)O4)c(C)c(O)c3c(O)c2C(=O)C1OC1CC(OC2CC(OC3CC(O)C(OC)C(C)O3)C(O)C(C)O2)C(O)C(C)O1` (stereo unspecified), the AC50 is under 260 nM.
